Reference: US20060178394A1, “Pharmaceutical compositions comprising apomorphine for pulmonary inhalation” (priority 2003, published 2006)
Entries after “also recorded” stand apart in the source; their conditions may differ. Counter-ions that a name gives are not always drawn. Like-named read-outs stand apart in the source and are kept apart here.

Legend:
[1] = Drug retention and degradation in PE and PVC blisters
[2] = Solubility of apomorphine HCl in HFA propellant systems (solution pMDI); format: physicochemical
Method: However, conventional solution pMDI techniques are not believed to be appropriate for the delivery of apomorphine or its pharmaceutically acceptable salts with HFA propellants. Specifically, apomorphine base is too unstable to be formulated using current approaches and apomorphine salts are too polar to be formulated as solutions in HFA propellants. […] Even with such a system, a solution concentration of <25 μg/dose is achieved, which is well below the effective doses described above in connection with Dry Powder Inhalers.

[3] = system: patients (quality of erection in response to VSS); assay: Clinical study (Example 14): erection response to visual sexual stimulation after DPI inhalation; format: in vivo, human; conditions: for Number of patients with quality grade 0, No effect / Number of patients with quality grade 1, Some tumescence, no rigidity / Number of patients with quality grade 2, Some tumescence and rigidity / Number of patients with quality grade 3, Partial erection / Number of patients with quality grade 4, Full erection: ITT; for Effective? / Responding (subjects with grade 3 or 4 erection) / Response rate: ITT population; for Duration, Mean: 60 min test period
Method: During each treatment, a patient was administered the given dose and was left alone to watch an hour of visual sexual stimulation (VSS). […] After 60 minutes, the patient's were asked to rate the quality and duration of their response to VSS. In this regard, the quality of response is defined as one of […]: 0: no effect; 1: some tumescence, no rigidity; 2: some tumescence, some rigidity, but not suitable for penetration; 3: rigidity and tumescence that would enable penetration but is not complete erection; 4: complete erection.
This study was conducted in a double blind fashion, where both the healthcare professional administering the treatment and the patient were not informed as to the actual dose being administered. The patients who participated in this study were randomised.
The primary measure of efficacy, as defined in the protocol, was the proportion of subjects reporting a grade 3 or 4 erection, using general criteria defined in the International Index of Erectile Function (IIEF). Grade 3 and 4 erections are regarded as “sufficient for successful intercourse”.

[4] = Adverse event monitoring in the clinical study of Example 14; format: in vivo, human; conditions: for All adverse events: subjects with AE, %: safety population
Text: Adverse events were monitored during each dosing period. The proportion of patients experiencing one or more adverse events was similar in all four treatment groups. No serious adverse events were observed and no adverse event led to the premature discontinuation of any subject. All adverse events were mild or moderate in severity and occurred in a small percentage of the groups treated. Table 9 is a summary of all treatment related adverse events, and Table 10 breaks treatment-related adverse events down by body system.

[5] = intranasal delivery, clinical setting; Nastech studies; cited from earlier work
[6] = Phase I study: plasma pharmacokinetics of single inhaled doses (Example 15); format: in vivo, human; conditions: for Tmax: median values; for Cmax: healthy male volunteers
Method: A phase I, double blind, randomised, placebo controlled study was conducted examining the safety, tolerability and pharmacokinetics of single 600 μg, 900 μg and 1200 μg doses in 16 healthy male volunteers. No evaluation for efficacy was conducted during the clinical study.
Pharmacokinetic plasma sampling was conducted pre-dose and at the following intervals post dose administration: 1 minute, 3 minutes, 5 minutes, 10 minutes, 15 minutes, 30 minutes, 45 minutes, 1 hour, 1.5 hours, 2 hours, 4 hours, 8 hours, 12 hours and 24 hours.
The following pharmacokinetic parameters were derived from the plasma apomorphine concentrations by non-compartmental analysis.
It should be noted that the tmax is represented as median values.

[7] = Blood analysis 70 minutes after inhalation (Example 14); format: in vivo; conditions: human, inhaled, 34 patients
Method: For each patient, blood samples were taken 70 minutes after inhalation. The blood samples were analysed, and the blood levels for 400 and 800 microgram doses of apomorphine for each of the 34 patients that completed the test are set forth in Table 11 in nanograms per millilitre. It should be appreciated from the data discussed in Example 15 below that these blood samples were actually taken long after the plasma concentration peak.

[8] = 200 μg inhaled, grade 3 and 4 responders
[9] = 400 μg inhaled, listed as apomorphine HCl, hydrochloride
[10] = 400 μg inhaled, grade 3 and 4 responders
[11] = 800 μg inhaled, listed as apomorphine HCl, hydrochloride
[12] = male, human, plasma, inhaled or intranasal, 600 ug, 600 μg single inhaled dose, mean ± standard error
[13] = male, human, plasma, inhaled or intranasal, 900 ug, 900 μg single inhaled dose, mean ± standard error
[14] = male, human, plasma, inhaled or intranasal, 1200 ug, 1200 μg single inhaled dose, mean ± standard error

Mean drug retention, PE blisters ([1]; DUSA): 43.6 µg
Mean drug retention, PVC blisters ([1]; DUSA): 12.9 µg
Mean drug retention, PE blisters ([1]; Initial stability): 44.7 µg
Mean drug retention, PVC blisters ([1]; Initial stability): 13.9 µg
Ethanol required for suitable or acceptable solubility ([2]; HFA propellant solution pMDI systems): at least 50%
Solution concentration achieved ([2]; HFA propellant system with at least 50% ethanol): < 25 μg/dose
AUC0-∞ ([6]; 600 μg single inhaled dose, mean ± standard error): 176.4 ± 26.9 ng·min/mL
Tmax ([6]; 900 μg single inhaled dose, hydrochloride): 1 min
Tmax ([6]; 1200 μg single inhaled dose, hydrochloride): 1 min
Dose proportionality for Cmax, AUC0-∞ and AUC0-t ([6]; 600, 900, 1200 μg inhaled): demonstrated
AUC(0-inf) ([6]; male, human, plasma, inhaled or intranasal, 600 ug, 600 μg inhaled, comparison table with Uprima): 2.2 ng·h/mL
Cmax [6, 12]: 3.5 to 4.9 ng/mL
AUC(0-t) [6, 12]: 2.23 ng·h/mL
Tmax ([6]; male, human, plasma, inhaled or intranasal, 600 ug, 600 μg single inhaled dose, read-out: tmax (converted)): 3 min
AUC(0-inf) ([6]; male, human, plasma, inhaled or intranasal, 900 ug, 900 μg inhaled, comparison table with Uprima): 3.4 ng·h/mL
Cmax [6, 13]: 7.4 to 8.8 ng/mL
AUC(0-inf) [6, 13]: 3.84 ng·h/mL
AUC(0-t) [6, 13]: 3.42 ng·h/mL
Tmax ([6]; male, human, plasma, inhaled or intranasal, 900 ug, 900 μg single inhaled dose, read-out: tmax (converted)): 1 min
AUC(0-inf) ([6]; male, human, plasma, inhaled or intranasal, 1200 ug, 1200 μg inhaled, comparison table with Uprima): 5.5 ng·h/mL
Cmax [6, 14]: 9.2 to 16.2 ng/mL
AUC(0-inf) [6, 14]: 5.5 ng·h/mL
AUC(0-t) [6, 14]: 4.93 ng·h/mL
Tmax ([6]; male, human, plasma, inhaled or intranasal, 1200 ug, 1200 μg single inhaled dose, read-out: tmax (converted)): 1 min
concentration at 70 min ([7]; 400 μg, 400 μg inhaled, read-out: Blood level 70 minutes after dosing, Mean): 0.215 ng/mL
concentration at 70 min ([7]; 400 μg, 400 μg inhaled, read-out: Blood level 70 minutes after dosing, Median): 0.217 ng/mL
concentration at 70 min ([7]; 800 μg, 800 μg inhaled, read-out: Blood level 70 minutes after dosing, Mean): 0.608 ng/mL
concentration at 70 min ([7]; 800 μg, 800 μg inhaled, read-out: Blood level 70 minutes after dosing, Median): 0.567 ng/mL
Compound: CN1CCc2cccc3c2[C@H]1Cc1ccc(O)c(O)c1-3 [Apomorphine HCl, apomorphine hydrochloride]
Chemical stability in the presence of polyethylene (PE blisters) ([1]; initial stability data, related substance peaks after 1 month, hydrochloride): chemically degrades; also recorded: degradation of the formulated product takes place
Duration ([3]; 200 μg inhaled): 24 min
Duration, Max ([3]; 200 μg inhaled): 47 min
Duration, Median ([3]; 200 μg inhaled): 31.5 min
Onset of an erection in one patient ([3]; 200 μg inhaled, FIG. 12): about 40 minutes
Number of patients with quality grade 0, No effect ([3]; 200 μg inhaled): 11
Number of patients with quality grade 1, Some tumescence, no rigidity ([3]; 200 μg inhaled): 10
Number of patients with quality grade 2, Some tumescence and rigidity ([3]; 200 μg inhaled): 6
Number of patients with quality grade 3, Partial erection ([3]; 200 μg inhaled): 6
Number of patients with quality grade 4, Full erection ([3]; 200 μg inhaled): 2
Effective? ([3]; 200 μg inhaled): No
Responding (subjects with grade 3 or 4 erection) ([3]; 200 μg inhaled, 35 evaluated): 8
Response rate ([3]; 200 μg inhaled, hydrochloride): 22.9%
Duration, Mean ([3]; 200 μg inhaled, N 8): 33.3 min
Onset, Max [3, 8]: 20 min post dose
Onset, Min [3, 8]: 8 min post dose
Onset, Mean ([3]; 200 μg inhaled, grade 3 and 4 responders, N 8): 13 min post dose
Duration ([3]; 400 μg inhaled): 4 min
Duration, Max ([3]; 400 μg inhaled): 54 min
Duration, Median ([3]; 400 μg inhaled): 38 min
Onset of an erection in one patient ([3]; 400 μg inhaled, FIG. 13): about 3 minutes
Number of patients with quality grade 0, No effect ([3]; 400 μg inhaled): 8
Number of patients with quality grade 1, Some tumescence, no rigidity ([3]; 400 μg inhaled): 6
Number of patients with quality grade 2, Some tumescence and rigidity ([3]; 400 μg inhaled): 3
Number of patients with quality grade 3, Partial erection ([3]; 400 μg inhaled): 8
Number of patients with quality grade 4, Full erection ([3]; 400 μg inhaled): 8
Responding (subjects with grade 3 or 4 erection) ([3]; 400 μg inhaled, 33 evaluated): 16
Effective? ([3]; 400 μg inhaled, listed as apomorphine HCL, hydrochloride): effective
Effective? [3, 9]: effective and Yes
Response rate [3, 9]: 48.5%
Duration, Mean ([3]; 400 μg inhaled, N 16): 31.1 min
Onset, Max [3, 10]: 28 min post dose
Onset, Median [3, 10]: 8 min post dose
Onset, Mean ([3]; 400 μg inhaled, grade 3 and 4 responders, N 16): 11 min post dose
Onset, Min ([3]; 400 μg inhaled, grade 3 and 4 responders, hydrochloride): 3 min post dose
Duration ([3]; 800 μg inhaled): 6 min
Duration, Max ([3]; 800 μg inhaled): 54 min
Duration, Median ([3]; 800 μg inhaled): 36 min
Onset of an erection in one patient ([3]; 800 μg inhaled, FIG. 14): about 4 minutes
Number of patients with quality grade 1, Some tumescence, no rigidity ([3]; 800 μg inhaled): 3
Number of patients with quality grade 2, Some tumescence and rigidity ([3]; 800 μg inhaled): 7
Number of patients with quality grade 3, Partial erection ([3]; 800 μg inhaled): 6
Number of patients with quality grade 4, Full erection ([3]; 800 μg inhaled): 14
Responding (subjects with grade 3 or 4 erection) ([3]; 800 μg inhaled, 34 evaluated): 20
Effective? ([3]; 800 μg inhaled, listed as apomorphine HCL, hydrochloride): effective
Effective? [3, 11]: effective and Yes
Response rate [3, 11]: 58.8%
Duration, Mean ([3]; 800 μg inhaled, N 19): 31.2 min
Onset, Max ([3]; 800 μg inhaled, grade 3 and 4 responders): 17 min post dose
Onset, Mean ([3]; 800 μg inhaled, grade 3 and 4 responders, N 19): 10 min post dose
Onset, Min ([3]; 800 μg inhaled, grade 3 and 4 responders, hydrochloride): 3 min post dose
Lowest inhaled dose at which the clinical effect is observed ([3]; pulmonary inhalation): 400 µg
Treatment-related AE: Cough, % ([4]; 200 μg inhaled): 3%
Treatment-related AE: Dizziness, % ([4]; 200 μg inhaled): 3%
Treatment-related AE: Nasal congestion, % ([4]; 200 μg inhaled): 3%
Treatment-related AE: Nervous system disorders, % ([4]; 200 μg inhaled): 3%
Treatment-related AE: Respiratory, thoracic & mediastinal disorders, % ([4]; 200 μg inhaled): 3%
Treatment-related AE: Sneezing, % ([4]; 200 μg inhaled): 3%
Treatment-related adverse events: subjects with AE, % ([4]; 200 μg inhaled): 6%
All adverse events: subjects with AE, % ([4]; 200 μg inhaled): 9%
Treatment-related AE: Dry throat, % ([4]; 400 μg inhaled): 3%
Treatment-related AE: Pharyngolaryngeal pain, % ([4]; 400 μg inhaled): 6%
Treatment-related AE: Respiratory, thoracic & mediastinal disorders, % ([4]; 400 μg inhaled): 9%
Treatment-related adverse events: subjects with AE, % ([4]; 400 μg inhaled): 9%
All adverse events: subjects with AE, % ([4]; 400 μg inhaled): 9%
Treatment-related AE: Dizziness, % ([4]; 800 μg inhaled): 6%
Treatment-related AE: Gastrointestinal disorders, % ([4]; 800 μg inhaled): 3%
Treatment-related AE: Nausea, % ([4]; 800 μg inhaled): 3%
Treatment-related AE: Nervous system disorders, % ([4]; 800 μg inhaled): 6%
Treatment-related adverse events: subjects with AE, % ([4]; 800 μg inhaled): 6%
All adverse events: subjects with AE, % ([4]; 800 μg inhaled, hydrochloride): 6%
Dose that can be administered without causing unacceptable side effects [5]: more than 2 mg
